The values below come from patent publication US9073821B2, “Hydroxamic acid derivative” (priority 2010, dated 2015).

One assay addresses Pseudomonas aeruginosa LpxC enzyme (Pseudomonas aeruginosa (strain ATCC 15692 / DSM 22644 / CIP 104116 / JCM 14847 / LMG 12228 / 1C / PRS 101 / PAO1), UniProt P47205). Put plainly: biochemical. Format: biochemical.
Conditions: not given
Regarding `CNC(=O)C(C(=O)NO)N(C)C(=O)c1ccc(C#Cc2ccc(CN3C4CCC3CC4)cc2)cc1` (stereo not shown) [Compound 527, 2-{[(4-{[4-(7-azabicyclo[2.2.1]hept-7-ylmethyl)phenyl]ethynyl}phenyl)carbonyl](methyl)amino}-N-hydroxy-N′-methylpropanediamide], the IC50 lay in the range of 10 to 100 nM.

Staying with this assay, now noted: class symbols A/B/C by IC50; Table 3; read-out: Enzyme inhibitory activity (inhibitory activity on Pseudomonas aeruginosa LpxC enzyme).
Regarding `CCOC1CN(Cc2ccc(C#Cc3ccc(C(=O)N(C)C(C(=O)NC)C(=O)NO)cc3C)cc2)C1` (stereo not shown) [Compound 582, 2-[{[4-({4-[(3-ethoxyazetidin-1-yl)methyl]phenyl}ethynyl)-3-methylphenyl]carbonyl}(methyl)amino]-N-hydroxy-N′-methylpropanediamide], the IC50 is < 10 nM.
On the same count and under the same terms, then `CNC(=O)[C@@](C)(C(=O)NO)N(C)C(=O)c1ccc(C#Cc2cc(C)on2)cc1` [Compound 576, (2S)-N-hydroxy-N′,2-dimethyl-2-[methyl({4-[(5-methyl-1,2-oxazol-3-yl)ethynyl]phenyl}carbonyl)amino]propanediamide], with < 10 nM.

Staying with this assay, now noted: inhibitory activity on Pseudomonas aeruginosa LpxC enzyme, class symbols A/B/C; read-out: Enzyme inhibitory activity.
As to `CNC(=O)C(C(=O)NO)N(C)C(=O)c1ccc(-c2ccc(/C=N/N(C)C)cc2)cc1` (stereo not shown) [Compound 275, 2-[({4′-[(E)-(dimethylhydrazinylidene)methyl]biphenyl-4-yl}carbonyl)(methyl)amino]-N-hydroxy-N′-methylpropanediamide], the IC50 was < 10 nM.
`CNC(=O)C(C(=O)NO)N(C)C(=O)c1ccc(-c2ncccc2F)cc1` (stereo not shown) [Compound 107, 2-{[4-(3-fluoropyridin-2-yl)benzoyl](methyl)amino}-N-hydroxy-N′-methylpropanediamide]: the IC50 was > 100 nM.
The same measure, in the same setting: under `CNC(=O)C(C(=O)NO)N(C)C(=O)c1ccc(-c2cccc(O)c2)cc1` (stereo not shown) [Compound 48, N-hydroxy-2-{[(3′-hydroxybiphenyl-4-yl)carbonyl](methyl)amino}-N′-methylpropanediamide] stands 10 to 100 nM; under `CNC(=O)C(C(=O)NO)N(C)C(=O)c1ccc(C#Cc2ccc(CN(C)C)cc2)cc1` (stereo not shown) [Compound 202, 2-{[4-({4-[(dimethylamino)methyl]phenyl}ethynyl)benzoyl](methyl)amino}-N-hydroxy-N′-methylpropanediamide], 10 to 100 nM; under `CC(C)NC(=O)C(NC(=O)c1ccc(-c2ccc(OCCO)cc2)cc1)C(=O)NO` (stereo not shown) [Compound 143, N-hydroxy-2-({[4′-(2-hydroxyethoxy)biphenyl-4-yl]carbonyl}amino)-N′-(propan-2-yl)propanediamide], 10 to 100 nM.
Take `Cc1cccc(CNC(=O)C(NC(=O)c2ccc(-c3ccc(OCCO)cc3)cc2)C(=O)NO)n1` (stereo not shown) [Compound 150, N-hydroxy-2-({[4′-(2-hydroxyethoxy)biphenyl-4-yl]carbonyl}amino)-N′-[(6-methylpyridin-2-yl)methyl]propanediamide]: the IC50 is < 10 nM.
The same measure, in the same setting: then `CNC(=O)C(C(=O)NO)N(C)C(=O)c1ccc(-c2ccc(NC)c(C(F)(F)F)c2)cc1` (stereo not shown) [Compound 68, N-hydroxy-N′-methyl-2-(methyl{[4′-(methylamino)-3′-(trifluoromethyl)biphenyl-4-yl]carbonyl}amino)propanediamide], with < 10 nM; and `CNC(=O)C(C(=O)NO)N(C(=O)c1ccc(-c2ccccc2)cc1)C1CCC1` (stereo not shown) [Compound 163, 2-[(biphenyl-4-ylcarbonyl)(cyclobutyl)amino]-N-hydroxy-N′-methylpropanediamide], with 10 to 100 nM; and `CNC(=O)C(C(=O)NO)N(C)C(=O)c1ccc(N2Cc3ccccc3C2)cc1` (stereo not shown) [Compound 250, 2-{[4-(1,3-dihydro-2H-isoindol-2-yl)benzoyl](methyl)amino}-N-hydroxy-N′-methylpropanediamide], with 10 to 100 nM.
Same read-out and setting: under `CNC(=O)C(C(=O)NO)N(C)C(=O)c1ccc(-c2cnc3ccccc3c2)cc1` (stereo not shown) [Compound 192, N-hydroxy-N′-methyl-2-{methyl[4-(quinolin-3-yl)benzoyl]amino}propanediamide] stands 10 to 100 nM.
